Test results from publication PMC7559923, “In Vitro Modeling of Bradykinin-Mediated Angioedema States” (Pharmaceuticals, 2020).
Ends that are not written are not given here. * marks the point of attachment. Biotin = O=C1N[C@H]2[C@H](CS[C@H]2CCCCC(=O)*)N1

Key:
ACE = molecular target: ACE; design: method as in 2 sources, one per row (each row's own in cited_ref): ref 35 = [35]; PMID 18201802; doi:10.1016/j.peptides.2007.12.004; 35. Morissette G. Couture J.P. Désormeaux A. Adam A. Marceau F. Lack of direct interaction between enalaprilat and the kinin B 1 receptors Peptides 2008 29 606 612 10.1016/j.peptides.2007.12.004 18201 ||| ref 36 = [36]; PMID 20452384; doi:10.1016/j.peptides.2010.04.027; 36. Koumbadinga G.A. Bawolak M.T. Marceau E. Adam A. Gera L. Marceau F. A ligand-based approach to investigate the expression and function of angiotensin converting enzyme in intact human umbilical ve; details: cited from earlier work
B1 receptor = details: cited from earlier work
Excerpt: (§1) (Figure 2). Thus, the EIA signal may be contaminated with the inert metabolite generated by aminopeptidase P, a significant peptidase that inactivates BK [17]. One way out is to couple the EIA quantification with chromatographic separation of kinins, such as HPLC [29].

B2 receptor = details: cited from earlier work
Excerpt: as §1

[1] = test system: polyclonal anti-BK antibodies; assay: Cross-reactivity of the BK EIA (Phoenix Pharmaceuticals) with kinin sequences; assay type: binding; details: Figure 2 (reproduced in part from ref 12)
Excerpt: BK and related peptides are formed locally close to their site of action (autacoids). They are extremely unstable and prone to artefactual formation when blood or tissues are sampled (for instance, following contact of blood with glass). Therefore, measuring kinins in venous blood is not really informative, contrasting with many useful peptide hormone dosages applied in endocrinology. A further challenge in concentration determination is that the BK sequence is embedded in that of precursor kininogens, with necessary separation if an antibody-based detection system is considered. Blais et al. have reviewed these pitfalls and discussed extraction procedures and recovery in the context of the currently applied immunoassays. Professor A. Adam and co-workers developed separate competitive chemiluminescence enzyme immunoassays (EIAs) for BK and des-Arg^9-BK based on digoxygenin-conjugated peptides. Now several commercially available kits are being used, such as that from Phoenix Pharmaceuticals for BK (96-well plate format), and these have the advantage of world-wide reproducibility. The sensitivity of EIAs is excellent. […]
(Figure 2). […] One way out is to couple the EIA quantification with chromatographic separation of kinins, such as HPLC [29]. […]

human B1 receptor = details: cited from earlier work
Excerpt: The present paper reviews recent literature, contains some original results, and aims to illustrate the role of the analytical biochemistry of BK-related kinins in the understanding of angioedema (AE) mediated by kinins. The kallikrein –kinin system is made of many molecular participants present or secreted in blood plasma or present at the vascular endothelial surface (Figure 1). There are two different precursors of kinins, low and high molecular weight kininogens (LK, HK; abbreviations are defined in Table 1). Those proteins are encoded by alternative splicing of a single gene ...

[2] = test system: polyclonal anti-BK antibodies; details: cited from earlier work; for cross-reactivity in the BK EIA as stated by the manufacturer: ref Phoenix Pharmaceuticals
Excerpt: BK and related peptides are formed locally close to their site of action (autacoids). They are extremely unstable and prone to artefactual formation when blood or tissues are sampled (for instance, following contact of blood with glass). Therefore, measuring kinins in venous blood is not really informative, contrasting with many useful peptide hormone dosages applied in endocrinology. A further challenge in concentration determination is that the BK sequence is embedded in that of precursor kininogens, with necessary separation if an antibody-based detection system is considered. Blais e ... || Figure 2 Cross-reactivity of the BK EIA with selected kinin sequences. […] Reproduce ...

[3] = Degradation of BK by intact adherent HUVECs (Phoenix Pharmaceuticals BK EIA)
Protocol: Samples were incubated at 37 °C under agitation for the indicated time periods before extraction and EIA determination of BK. The number of replicated from different healthy donors is indicated by “n”. […] Reproduced from.
ACE activity in serum or blood plasma corresponds, in healthy individuals, to a form of the protein shed from the vascular endothelial cells in an apparently regulated manner. ACE, membrane arginine carboxypeptidase (carboxypeptidase M), aminopeptidase P and other potential kininases are expressed at the surface of vascular endothelial cells. Primary cultures of human umbilical vein endothelial cells (HUVECs) are a standard model for which significant information is available.

[4] = cited from earlier work
Protocol: Samples were incubated at 37 °C under agitation for the indicated time periods before extraction and EIA determination of BK. The number of replicated from different healthy donors is indicated by “n”. […] Reproduced from. (B) Catabolism of BK ... || One stored plasma sample that was received in our laboratory was partly clotted and excluded from our previous studies. […] Secondly, the par ...

[5] = BK 10 ng/mL, adherent HUVECs at 37 °C without serum, radioimmunoassay; cited from earlier work
Excerpt: ACE activity in serum or blood plasma corresponds, in healthy individuals, to a form of the protein shed from the vascular endothelial cells in an apparently regulated manner. ACE, membrane arginine carboxypeptidase (carboxypeptidase M), aminopeptidase P and other potential kininases are expressed at the surface of vascular endothelial cells. Primary cultures of human umbilical vein endothelial cells (HUVECs) are a standard model for which significant information is available. These cells express at their surface a high number of ACE molecule, as judged from the saturable binding of [^3 ...

[6] = BK added ex vivo to plasma of healthy subjects who took two daily doses of enalapril maleate; cited from earlier work

## C[C@H](N[C@@H](CCc1ccccc1)C(=O)O)C(=O)N1CCC[C@H]1C(=O)O [[^3H]enalaprilat, enalaprilat]
ACE; saturable binding to intact HUVECs
  Kd: 0.23 nM

## BK1–5: BK fragment produced by two cycles of ACE activity, more stable than most kinins (RPPGF; Bradykinin; UniProt P01042 381-385, looked up, fragment)
B1 receptor
  activity on B1 receptors: inactive
B2 receptor
  activity on B2 receptors: inactive

## BK1–7: BK fragment produced by ACE (RPPGFSP; Bradykinin; UniProt P01042 381-387, looked up, fragment)
B1 receptor
  activity on B1 receptors: inactive
B2 receptor
  activity on B2 receptors: inactive

## D-Arg-BK-Arg-Arg
[1]
  cross-reactivity in the BK EIA vs. BK: loses much affinity
[1]; listed as Arg-BK-Arg-Arg
  cross-reactivity in the BK EIA vs. BK: partial reactivity

## Lys-des-Arg^9-BK
Human B1 receptor
  affinity for the human form of the B1 receptor: subnanomolar affinity
[2]; Phoenix Pharmaceuticals BK EIA
  cross-reactivity in the BK EIA: do not cross react at all

## RPPGFSPFR [BK, bradykinin]
[3]
  stability in wells without cells (nude plastic): stable
[3]; human, pH 7.4
  half-life at 10 nM: 12.3 min
[4]
  time in which BK was completely cleared: 5 min
[4]; human
  half-life (first order decay): 7.1 min
  t1/2: 0.567 min
[5]
  half-life: about 50 min
[6]
  increase of BK t1/2 relative to the pre-treatment value: ~ 5 fold

## biotinyl-BK (Biotin-RPPGFSPFR; UniProt P01042 381-389, looked up) [biotin-labelled BK tracer]
[2]
  cross-reactivity in the BK EIA as stated by the manufacturer: fully cross-reacts

## des-Arg^9-BK (RPPGFSPF; Bradykinin; UniProt P01042 381-388, looked up, fragment) [BK metabolite produced by arginine carboxypeptidases (kininase I)]
Human B1 receptor
  affinity for the human form of the B1 receptor: very weak affinity
[2]
  cross-reactivity in the BK EIA as stated by the manufacturer: not

## lysyl-bradykinin [Lys-BK]
ACE; HUVECs
  displacement of [3H]enalaprilat binding: displaced
[2]
  cross-reactivity in the BK EIA as stated by the manufacturer: fully cross-reacts
